According to patent US8263565B2, “Nanoemulsion comprising metabolites of ginseng saponin as an active component and a method for preparing the same, and a skin-care composition for anti-aging containing the same” (Amorepacific Corporation, priority 2002, dated 2012):

System: Guinea pig's skin
Test: Skin penetration with Frantz cell, HPLC determination
Type: in vitro ADME
Procedure: Skin penetration was evaluated for Guinea pig's skin with Frantz cell. Before test, abdominal part, a piece of skin as large as 1 cm^2 square was excised. The excised skin was mounted on a Frantz cell with the diameter of 0.9 cm and fixed with clamp. 0.5 ml of test sample (in case of Examples 1˜9 and C. Examples 1˜6, 0.05 ml of sample and distilled water; and in case of Formulations 1˜30 and C. Formulations 1˜15, 0.5 ml of sample only) was placed on one side of skin (donor side). The other side (receiver side) was filled with mixture of distilled water and ethanol (4:1 weight ratio). Test was performed at 32° C., which is skin temperature. Test solvent was sampled at predetermined time intervals from the receiver side, and the amounts of penetrated compound K, ginsenoside F1 and compound Y were determined by HPLC system. The data were indicated in penetrated amount per applied concentration (μg/cm^2/wt %).
In case of purified ginseng saponin, the amount of penetrated saponin was determined. Also, in case of Bio GF1K, the amounts of penetrated compound K, ginsenoside F1 and compound Y were determined and total penetrated amounts were calculated by sum of each peak.
<HPLC Analytic Condition> • Column: C18 (ODS) • Solvent Flow: 1 ml/min • Detection UV: 203 nm • Sample test concentration 5 mg/ml • Sample injection amount: 10 μg • Eluent: Gradient condition • A: Acetonitrile/D.I. water=15/85 • B: Acetonitrile/D.I. water=80/20
<Solvent Gradient Condition>

Compound | skin penetration (comparison in words)
CC(C)=CCC[C@](C)(O[C@@H]1O[C@H](CO)[C@@H](O)[C@H](O)[C@H]1O)[C@H]1CC[C@]2(C)[C@@H]1[C@H](O)C[C@@H]1[C@@]3(C)CC[C@H](O)C(C)(C)[C@@H]3CC[C@]12C [compound K, 20-O-β-D-glucopyranosyl-20(S)-protopanaxadiol] | superior effects on skin penetration to purified ginseng saponin
CC(C)=CCC[C@](C)(O[C@@H]1O[C@H](CO[C@@H]2OC[C@H](O)[C@H](O)[C@H]2O)[C@@H](O)[C@H](O)[C@H]1O)[C@H]1CC[C@]2(C)[C@@H]1[C@H](O)C[C@@H]1[C@@]3(C)CC[C@H](O)C(C)(C)[C@@H]3CC[C@]12C [compound Y, 20-O-[α-L-arabinopyranosyl(1→6)-β-D-glucopyranosyl]-20(S)-protopanaxadiol] | superior effects on skin penetration to purified ginseng saponin
CC(C)=CCC[C@](C)(O[C@@H]1O[C@H](CO)[C@@H](O)[C@H](O)[C@H]1O)[C@H]1CC[C@]2(C)[C@@H]1[C@H](O)C[C@@H]1[C@@]3(C)CC[C@H](O)C(C)(C)[C@@H]3[C@@H](O)C[C@]12C [ginsenoside F1, 20-O-β-D-glucopyranosyl-20(S)-protopanaxatriol] | superior effects on skin penetration to purified ginseng saponin
